Reference: patent publication EP0668759B1, “TRANSDERMAL DELIVERY OF KETOROLAC” (Neurogesx, Inc., priority 1992, dated 1994)

Legend:
[1] = approximate; cited from earlier work
[2] = in the presence of light; cited from earlier work
[3] = assay type: in vitro ADME, Human
Description: Skin permeation rates of various ketorolac/enhancer formulations were determined using flow through diffusion cells with an active area of 1 cm^2 and a receiving column of 3 ml. The receptor fluid, isotonic saline, was pumped into and through the cells by a peristaltic pump. Samples were collected in glass vials arranged in an automatic fraction collector. Human skin was placed on the lower half of the diffusion cell with the stratum corneum facing the donor compartment. The test solution or transdermal device was placed on the stratum corneum and the amount of drug permeated across the skin (µg/cm^2·hr) was calculated from the cumulative release.

[4] = water and methanol; cited from earlier work

For `O=C(c1ccccc1)c1ccc2n1CCC2C(=O)O` (racemic) [ketorolac], the half-life [1] is given as about 4 h and the stability to light [2] is given as “degrades in the presence of light”.
With `O=C(c1ccccc1)c1ccc2n1CC[C@@H]2C(=O)O` [(-) ketorolac] the “permeability to human skin” value [3] was “as permeable to human skin as the racemate”.
For `O=C(c1ccccc1)c1ccc2n1CCC2C(=O)O` (stereo not shown) [Ketorolac tromethamine], the solubility [4] is given as “freely soluble in water and methanol”.
